From paper PMC7797525 (iScience, 2020)

Tests used:
RecA [1] = biological target: T1, RecA (Escherichia coli, UniProt P0A7G6, Y104A); test: isothermal titration calorimetry; assay type: binding
T1 sequence (P0A7G6 2-353 Y104A): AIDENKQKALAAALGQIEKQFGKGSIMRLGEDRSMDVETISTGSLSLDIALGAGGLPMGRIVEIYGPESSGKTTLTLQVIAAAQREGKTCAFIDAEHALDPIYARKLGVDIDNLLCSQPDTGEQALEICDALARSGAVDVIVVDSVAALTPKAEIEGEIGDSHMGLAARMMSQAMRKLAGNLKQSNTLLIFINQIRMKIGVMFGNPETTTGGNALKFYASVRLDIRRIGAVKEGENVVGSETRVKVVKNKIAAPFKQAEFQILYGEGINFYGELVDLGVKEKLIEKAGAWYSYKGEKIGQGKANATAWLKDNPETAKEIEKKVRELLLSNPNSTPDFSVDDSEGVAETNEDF

RecA [2] = biological target: T2, RecA (Escherichia coli, UniProt P0A7G6); test: isothermal titration calorimetry; assay type: binding
T2 sequence (P0A7G6 2-353): T1 sequence (P0A7G6 2-353 Y104A)

Row | Kd (RecA [1]) [µM] | Kd (RecA [2]) [µM] | Compound
1 | 40.2 | 17.6 | Cc1ccc(C(=O)Nc2ccc(S(=O)(=O)O)c3cc(S(=O)(=O)O)cc(S(=O)(=O)O)c23)cc1NC(=O)c1cccc(NC(=O)Nc2cccc(C(=O)Nc3cc(C(=O)Nc4ccc(S(=O)(=O)O)c5cc(S(=O)(=O)O)cc(S(=O)(=O)O)c45)ccc3C)c2)c1 [cpd01, suramin]
2 |  | 18.8 | COc1cc(-c2ccc(N=Nc3ccc4c(S(=O)(=O)O)cc(S(=O)(=O)O)c(N)c4c3O)c(OC)c2)ccc1N=Nc1ccc2c(S(=O)(=O)O)cc(S(=O)(=O)O)c(N)c2c1O [s05, Chicago sky blue]
3 |  | 11.5 | Cc1cc(-c2ccc(/N=N/c3ccc4c(S(=O)(=O)O)cc(S(=O)(=O)O)c(N)c4c3O)c(C)c2)ccc1/N=N/c1ccc2c(S(=O)(=O)O)cc(S(=O)(=O)O)c(N)c2c1O [s06, Evans blue]
